As a reminder, the EC50 is the midpoint of the concentration-response curve. Lower therefore signals a more potent agent.

One compound from paper PMC5394417, “Investigating the molecular mechanism of positive and negative allosteric modulators in the calcium-sensing receptor dimer” (Scientific Reports, 2017) can be followed below.

This test concerns the target T1, HA-F821A CaSR mutant (Rattus norvegicus, UniProt P48442, F821A).
T1 construct: mGluR5 signal peptide (N); expressed in transfected cells; host or cells: HEK293T
T1 sequence (P48442 20-1079 F821A): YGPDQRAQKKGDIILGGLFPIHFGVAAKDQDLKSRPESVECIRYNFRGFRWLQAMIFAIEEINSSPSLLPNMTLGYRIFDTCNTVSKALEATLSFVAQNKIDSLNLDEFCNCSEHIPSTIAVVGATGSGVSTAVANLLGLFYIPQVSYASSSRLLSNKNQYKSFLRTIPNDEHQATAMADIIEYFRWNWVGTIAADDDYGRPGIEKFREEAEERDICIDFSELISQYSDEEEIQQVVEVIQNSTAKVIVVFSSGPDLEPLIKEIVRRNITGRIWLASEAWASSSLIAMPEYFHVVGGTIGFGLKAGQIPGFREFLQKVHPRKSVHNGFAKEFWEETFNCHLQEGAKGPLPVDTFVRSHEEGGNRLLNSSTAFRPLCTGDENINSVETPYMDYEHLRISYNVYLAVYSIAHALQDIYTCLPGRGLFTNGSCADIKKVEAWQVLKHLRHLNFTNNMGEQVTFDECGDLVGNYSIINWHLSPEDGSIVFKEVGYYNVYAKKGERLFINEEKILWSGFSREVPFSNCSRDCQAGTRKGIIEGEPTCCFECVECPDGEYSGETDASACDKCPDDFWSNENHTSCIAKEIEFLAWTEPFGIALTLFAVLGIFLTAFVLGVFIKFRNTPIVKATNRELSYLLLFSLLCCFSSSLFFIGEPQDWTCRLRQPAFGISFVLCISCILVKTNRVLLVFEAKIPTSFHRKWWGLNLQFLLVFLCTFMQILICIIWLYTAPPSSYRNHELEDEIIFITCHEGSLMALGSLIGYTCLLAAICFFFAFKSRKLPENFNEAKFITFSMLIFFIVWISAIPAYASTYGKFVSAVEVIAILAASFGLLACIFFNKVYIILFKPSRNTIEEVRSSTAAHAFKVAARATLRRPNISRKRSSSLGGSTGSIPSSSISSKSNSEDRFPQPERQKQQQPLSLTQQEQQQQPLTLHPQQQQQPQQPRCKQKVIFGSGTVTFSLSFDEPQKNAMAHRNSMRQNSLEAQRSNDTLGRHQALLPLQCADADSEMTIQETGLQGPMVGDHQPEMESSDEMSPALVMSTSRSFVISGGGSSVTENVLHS
The experiment in a line: IP-One assay, HEK293T transiently transfected. It counts as cell-based.

With `[Ca+2]` [Ca^2+], the EC50 by setting is: (Ca^2+ alone) 2.35 mM; (Ca^2+ with 1 μM NPS R-568) 1.92 mM; (Ca^2+ with 5 μM NPS 2143) 5.72 mM. Moreover, the “pEC50 ± S.E.M.” value is, setting by setting: (Ca^2+ alone) 2.63 ± 0.02; (Ca^2+ with 1 μM NPS R-568) 2.72 ± 0.01; (Ca^2+ with 5 μM NPS 2143) 2.25 ± 0.05. For the same compound, the “Max ± S.E.M.” value by setting is: (Ca^2+ alone, normalized to maximum response of WT CaSR) 87 ± 4.3%; (Ca^2+ with 1 μM NPS R-568, normalized to maximum response with Ca^2+ alone for the construct) 110 ± 14%; (Ca^2+ with 5 μM NPS 2143, normalized to maximum response with Ca^2+ alone for the construct) 51 ± 8.0%.
